# From PubChem BioAssay AID1963844 (Molecular Pharmacology Branch, DTP, NCI, 2024)
# Tested on: 422866-222-R5-J1-PDC complex spheroid viability
# Assay: Anticancer human tumor 422866-222-R5-J1-PDC patient-derived pancreatic adenocarcinoma cell line growth inhibition [POLQ]
# Details: for IC50: curve of first compound; for viability, T/C: stronger effect = lower value
# Method in brief: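 PDC + HUVEC + MSC complex spheroids; POLQ inhibitors ± partner drugs; top conc. at/near clinical Cmax, else 10 microM (SN-38 1 microM), half-log dilutions; 37 degrees C, 5% CO2.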
# [1] = second compound 0.0316 µM, first compound 0.0316 µM
# [2] = second compound 0.0316 µM, first compound 0.1 µM
# [3] = second compound 0.0316 µM, first compound 0.316 µM
# [4] = second compound 0.0316 µM, first compound 1 µM
# [5] = second compound 0.0316 µM, first compound 3.16 µM
# [6] = second compound 0.0316 µM, first compound 10 µM
# [7] = second compound 0.1 µM, first compound 0.0316 µM
# [8] = second compound 0.1 µM, first compound 0.1 µM
# [9] = second compound 0.1 µM, first compound 0.316 µM
# [10] = second compound 0.1 µM, first compound 1 µM
# [11] = second compound 0.1 µM, first compound 3.16 µM
# [12] = second compound 0.1 µM, first compound 10 µM
# [13] = second compound 0.316 µM, first compound 0.0316 µM
# [14] = second compound 0.316 µM, first compound 0.1 µM
# [15] = second compound 0.316 µM, first compound 0.316 µM
# [16] = second compound 0.316 µM, first compound 1 µM
# [17] = second compound 0.316 µM, first compound 3.16 µM
# [18] = second compound 0.316 µM, first compound 10 µM
# [19] = second compound 1 µM, first compound 0.0316 µM
# [20] = second compound 1 µM, first compound 0.1 µM
# [21] = second compound 1 µM, first compound 0.316 µM
# [22] = second compound 1 µM, first compound 1 µM
# [23] = second compound 1 µM, first compound 3.16 µM
# [24] = second compound 1 µM, first compound 10 µM
# [25] = second compound 3.16 µM, first compound 0.0316 µM
# [26] = second compound 3.16 µM, first compound 0.1 µM
# [27] = second compound 3.16 µM, first compound 0.316 µM
# [28] = second compound 3.16 µM, first compound 1 µM
# [29] = second compound 3.16 µM, first compound 3.16 µM
# [30] = second compound 3.16 µM, first compound 10 µM
# [31] = second compound 10 µM, first compound 0.0316 µM
# [32] = second compound 10 µM, first compound 0.1 µM
# [33] = second compound 10 µM, first compound 0.316 µM
# [34] = second compound 10 µM, first compound 1 µM
# [35] = second compound 10 µM, first compound 3.16 µM
# [36] = second compound 10 µM, first compound 10 µM
# 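Further: spheroids exposed to compounds for one week before readout.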
# 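Wherever viability, T/C is given: percent of DMSO vehicle wells luminescence so 100% = untreated viability.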
smiles,measurement,setting,value
CC1COCCN1c1cc(C2(O)CC3CCC(C2)O3)c2cnn(-c3ccn[nH]3)c2n1 (stereo unspecified) + Cc1cccc(N(C)C(=O)C2C(O)CCN2c2nc(C)cc(C(F)(F)F)c2C#N)c1,IC50,second compound 0.0316 µM,> 10000 nM
same,IC50,second compound 0.1 µM,> 10000 nM
same,IC50,second compound 0.316 µM,> 10000 nM
same,IC50,second compound 1 µM,> 10000 nM
same,IC50,second compound 3.16 µM,31.6 nM
same,IC50,second compound 10 µM,> 10000 nM
same,"viability, T/C",[1],87.5%
same,"viability, T/C",[2],42.3%
same,"viability, T/C",[3],44.2%
same,"viability, T/C",[4],85.3%
same,"viability, T/C",[5],70.9%
same,"viability, T/C",[6],73.2%
same,"viability, T/C",[7],75.1%
same,"viability, T/C",[8],55.5%
same,"viability, T/C",[9],52.2%
same,"viability, T/C",[10],79.2%
same,"viability, T/C",[11],68.8%
same,"viability, T/C",[12],72.2%
same,"viability, T/C",[13],72.5%
same,"viability, T/C",[14],40.9%
same,"viability, T/C",[15],52.5%
same,"viability, T/C",[16],70.3%
same,"viability, T/C",[17],80.7%
same,"viability, T/C",[18],74.7%
same,"viability, T/C",[19],77.8%
same,"viability, T/C",[20],44.7%
same,"viability, T/C",[21],51.3%
same,"viability, T/C",[22],70.6%
same,"viability, T/C",[23],71.3%
same,"viability, T/C",[24],92.5%
same,"viability, T/C",[25],74.8%
same,"viability, T/C",[26],48.1%
same,"viability, T/C",[27],41.1%
same,"viability, T/C",[28],95.4%
same,"viability, T/C",[29],78.2%
same,"viability, T/C",[30],79%
same,"viability, T/C",[31],76.2%
same,"viability, T/C",[32],45.2%
same,"viability, T/C",[33],54.3%
same,"viability, T/C",[34],85.3%
same,"viability, T/C",[35],82.4%
same,"viability, T/C",[36],82.6%
O=C(Nc1ccc(O)c(NS(=O)(=O)c2ccc(F)cc2)c1)c1ccc(-c2ccccc2)cc1 + Cc1cccc(N(C)C(=O)C2C(O)CCN2c2nc(C)cc(C(F)(F)F)c2C#N)c1,IC50,second compound 0.0316 µM,> 10000 nM
same,IC50,second compound 0.1 µM,> 10000 nM
same,IC50,second compound 0.316 µM,> 10000 nM
same,IC50,second compound 1 µM,> 10000 nM
same,IC50,second compound 3.16 µM,> 10000 nM
same,IC50,second compound 10 µM,> 10000 nM
same,"viability, T/C",[1],94.2%
same,"viability, T/C",[2],89.3%
same,"viability, T/C",[3],73.9%
same,"viability, T/C",[4],89.3%
same,"viability, T/C",[5],99.8%
same,"viability, T/C",[6],121%
same,"viability, T/C",[7],85.4%
same,"viability, T/C",[8],89.8%
same,"viability, T/C",[9],89%
same,"viability, T/C",[10],91.3%
same,"viability, T/C",[11],95.5%
same,"viability, T/C",[12],116%
same,"viability, T/C",[13],94.3%
same,"viability, T/C",[14],99%
same,"viability, T/C",[15],90.9%
same,"viability, T/C",[16],101%
same,"viability, T/C",[17],90.7%
same,"viability, T/C",[18],106%
same,"viability, T/C",[19],96%
same,"viability, T/C",[20],94.5%
same,"viability, T/C",[21],99.2%
same,"viability, T/C",[22],88.9%
same,"viability, T/C",[23],86.3%
same,"viability, T/C",[24],113%
same,"viability, T/C",[25],97.2%
same,"viability, T/C",[26],91.8%
same,"viability, T/C",[27],89.2%
same,"viability, T/C",[28],92.9%
same,"viability, T/C",[29],94.2%
same,"viability, T/C",[30],118%
same,"viability, T/C",[31],71.9%
same,"viability, T/C",[32],82.3%
same,"viability, T/C",[33],87.3%
same,"viability, T/C",[34],86.8%
same,"viability, T/C",[35],97.6%
same,"viability, T/C",[36],103%
COc1cccc2c1C(=O)c1c(O)c3c(c(O)c1C2=O)CC(O)(C(=O)CO)CC3OC1CC(N)C(O)C(C)O1 (stereo unspecified) + Nc1ccc(C#CCN(C(=O)Cc2ncc(C(F)(F)F)cc2C(F)(F)F)c2ccc(F)cc2)nn1,IC50,second compound 0.0316 µM,65.9 nM
same,IC50,second compound 0.1 µM,118 nM
same,IC50,second compound 0.316 µM,67.7 nM
same,IC50,second compound 1 µM,81 nM
same,IC50,second compound 3.16 µM,92.3 nM
same,IC50,second compound 10 µM,142 nM
same,"viability, T/C",[1],60%
same,"viability, T/C",[2],44.3%
same,"viability, T/C",[3],32.5%
same,"viability, T/C",[4],30.2%
same,"viability, T/C",[5],34.6%
same,"viability, T/C",[6],28.3%
same,"viability, T/C",[7],52.7%
same,"viability, T/C",[8],54.3%
same,"viability, T/C",[9],28.9%
same,"viability, T/C",[10],33.3%
same,"viability, T/C",[11],29.6%
same,"viability, T/C",[12],27.2%
same,"viability, T/C",[13],58.4%
same,"viability, T/C",[14],45.2%
same,"viability, T/C",[15],35.1%
same,"viability, T/C",[16],24.8%
same,"viability, T/C",[17],28.6%
same,"viability, T/C",[18],26.6%
same,"viability, T/C",[19],59.2%
same,"viability, T/C",[20],47.7%
same,"viability, T/C",[21],34.4%
same,"viability, T/C",[22],26.4%
same,"viability, T/C",[23],28.6%
same,"viability, T/C",[24],30.8%
same,"viability, T/C",[25],57.7%
same,"viability, T/C",[26],49.3%
same,"viability, T/C",[27],31.5%
same,"viability, T/C",[28],23%
same,"viability, T/C",[29],36%
same,"viability, T/C",[30],24.5%
same,"viability, T/C",[31],54.4%
same,"viability, T/C",[32],55.5%
same,"viability, T/C",[33],38.7%
same,"viability, T/C",[34],22.6%
same,"viability, T/C",[35],32.8%
same,"viability, T/C",[36],30.5%
